Our source for the Ki values is US9115117B2, “Substituted piperidine compounds and their use as orexin receptor modulators” (JANSSEN PHARMACEUTICA NV, priority 2013, dated 2015).

Structures are written as SMILES. Some results are limits rather than exact numbers.

The target in experiment [1] is human orexin 2 receptor (Homo sapiens (Human), UniProt O43614). Description: Human orexin 2 receptor radioligand binding ([3H]-EMPA). Conditions: HEK293 stably expressing human orexin 2 receptor; [3H]-EMPA; apparent Ki; read-out: hOX2 Ki. On the procedure: After centrifugation (2K×G, 5 min at 4° C.), the supernatant was aspirated and the pellets frozen and stored at −80° C. […] Each cell pellet from a 15 cm plate was resuspended in 10 mL, stored on ice, and homogenized for 45 sec just prior to addition to the reactions. Competition binding experiments in 96 well polypropylene plates were performed using [^3H]-EMPA (Moraveck Corporation, specific activity=29.6 Ci/mmol), diluted to a 5 nM concentration in PBS (2 nM final concentration). […] The final concentration of DMSO in the reactions is equal to or less than 0.1%. Total and nonspecific binding was determined in the absence and presence of […]. The total volume of each reaction is 200 μL (20 μL of diluted compounds, 80 μL of [^3H]-EMPA diluted in PBS and 100 μL of the cell suspension).
Chain of human orexin 2 receptor (O43614 whole entry): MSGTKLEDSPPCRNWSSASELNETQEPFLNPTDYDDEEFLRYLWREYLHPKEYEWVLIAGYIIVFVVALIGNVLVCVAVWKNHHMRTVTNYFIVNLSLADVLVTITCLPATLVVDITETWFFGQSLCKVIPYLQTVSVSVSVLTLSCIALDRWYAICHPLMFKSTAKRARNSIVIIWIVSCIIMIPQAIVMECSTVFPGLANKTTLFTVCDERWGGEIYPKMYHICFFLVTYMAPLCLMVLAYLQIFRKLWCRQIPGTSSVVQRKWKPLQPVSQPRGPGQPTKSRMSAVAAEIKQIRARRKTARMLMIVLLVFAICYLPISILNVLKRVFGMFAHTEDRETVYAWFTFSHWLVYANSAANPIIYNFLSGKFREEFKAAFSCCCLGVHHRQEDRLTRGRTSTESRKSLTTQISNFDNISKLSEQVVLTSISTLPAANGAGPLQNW
The plates were washed 3 times by aspirating 30 ml PBS through the plates. Plates were dried in 55° C. oven for 60 min, scintillation fluid was added, and the radioactivity was counted on a Topcount (Packard).

Experiment [2] addresses rat orexin 1 receptor (Rattus norvegicus, UniProt P56718). Briefly: Rat orexin 1 receptor radioligand binding. As to conditions: HEK293 cells stably expressing rat orexin 1 receptor; apparent Ki; read-out: rOX1 Ki. On the procedure: After centrifugation (2K×G, 5 min at 4° C.), the supernatant was aspirated and the pellets frozen and stored at −80° C. […] Each cell pellet from a 15 cm plate was resuspended in 10 mL, stored on ice, and homogenized for 45 sec prior to addition to the reactions. Competition binding experiments in 96 well polypropylene plates were performed using [^3H]-(1-(5-(2-fluoro-phenyl)-2-methyl-thiazol-4-yl)-1-((S)-2-(5-phenyl-(1,3,4)oxadiazol-2-ylmethyl)-pyrrolidin-1-yl)-methanone) (Moraveck Corporation, specific activity=35.3 Ci/mmol), diluted to a 10 nM concentration in PBS (4 nM final). […] The final concentration of DMSO in the reactions is equal to or less than 0.1%. Total and nonspecific binding was determined in the absence and presence of 10 μM almorexant. The total volume of each reaction is 200 μL (20 μL of diluted compounds, 80 μL of [3H]-(1-(5-(2-fluoro-phenyl)-2-methyl-thiazol-4-yl)-1-((S)-2-(5-phenyl-(1,3,4)oxadiazol-2-ylmethyl)-pyrrolidin-1-yl)-methanone) diluted in PBS and 100 μL of the cell suspension). […] The plates were washed 3 times by aspirating 30 ml PBS through the plates. Plates were dried in 55° C. oven for 60 min, scintillation fluid was added, and the radioactivity was counted on a Topcount (Packard).

As for `C[C@@H]1[C@H](Nc2cnc3ccccc3n2)CCCN1C(=O)c1ccccc1-n1nccn1` (racemic) [Example 63, (±)-cis-(2-(2H-1,2,3-triazol-2-yl)phenyl)(2-methyl-3-(quinoxalin-2-ylamino)piperidin-1-yl)methanone], the Ki in experiment [1] is above 10000 nM.

For `C[C@H]1[C@H](Nc2ncc3ccccc3n2)CCCN1C(=O)c1ccccc1-n1nccn1` (racemic) [Example 39, (±)-trans-(2-(2H-1,2,3-triazol-2-yl)phenyl)(2-methyl-3-(quinazolin-2-ylamino)piperidin-1-yl)methanone], in experiment [1], the Ki was 189 nM.

Take `CCOc1ccccc1C(=O)N1CCC[C@@H](Nc2ccc(C(F)(F)F)cn2)[C@H]1C` (racemic) [Example 55, (±)-cis-(2-ethoxyphenyl)(2-methyl-3-((5-(trifluoromethyl)pyridin-2-yl)amino)piperidin-1-yl)methanone]: the Ki in experiment [2] is 1200 nM; in experiment [1] it was above 10000 nM.

As for `Cc1ccc(-c2ncccn2)c(C(=O)N2CCC[C@@H](Nc3cc(C)nc(C(F)(F)F)n3)[C@@H]2C)c1` (racemic) [Example 7, (±)-trans-(5-methyl-2-(pyrimidin-2-yl)phenyl)(2-methyl-3-((6-methyl-2-(trifluoromethyl)pyrimidin-4-yl)amino)piperidin-1-yl)methanone], the Ki in experiment [1] was found to be 228 nM.

`COc1c(F)cccc1C(=O)N1CCC[C@@H](Nc2ccc(C(F)(F)F)cn2)[C@@H]1C` (racemic) [Example 28, (±)-trans-(3-fluoro-2-methoxyphenyl)(2-methyl-3-((5-(trifluoromethyl)pyridin-2-yl)amino)piperidin-1-yl)methanone]: the Ki was 496 nM in experiment [2] and 3900 nM in experiment [1].

With `CCOc1ccccc1C(=O)N1CCC[C@@H](Nc2nccc(-c3ccccc3)n2)[C@H]1C` (racemic) [Example 68, (±)-cis-(2-ethoxyphenyl)(2-methyl-3-((4-phenylpyrimidin-2-yl)amino)piperidin-1-yl)methanone], the Ki in experiment [1] is above 10000 nM.

As for `CCOc1ccccc1C(=O)N1CCC[C@@H](Nc2nc3cc(Cl)ccc3o2)[C@@H]1C` (racemic) [Example 46, (±)-trans-(3-((5-chlorobenzo[d]oxazol-2-yl)amino)-2-methylpiperidin-1-yl)(2-ethoxyphenyl)methanone], the Ki in experiment [1] amounted to 489 nM.

For the compound `C[C@H]1[C@H](Nc2cnc3ccccc3n2)CCCN1C(=O)c1ccccc1-n1nccn1` (racemic) [Example 48, (±)-trans-(2-(2H-1,2,3-triazol-2-yl)phenyl)(2-methyl-3-(quinoxalin-2-ylamino)piperidin-1-yl)methanone], the Ki in experiment [1] is 96 nM.

Regarding `C[C@H]1[C@H](Nc2ccc(Cl)cn2)CCCN1C(=O)c1ccccc1-n1nccn1` [Example 100, (2-(2H-1,2,3-triazol-2-yl)phenyl)((2S,3R)-3-((5-chloropyridin-2-yl)amino)-2-methylpiperidin-1-yl)methanone], the Ki in experiment [1] worked out at 207 nM.

`Cc1ccc(C(=O)N2CCC[C@H](Nc3ccc(C(F)(F)F)cn3)[C@H]2C)c(-n2nccn2)c1` [Example 15, (4-methyl-2-(2H-1,2,3-triazol-2-yl)phenyl)((2R,3S)-2-methyl-3-((5-(trifluoromethyl)pyridin-2-yl)amino)piperidin-1-yl)methanone]: the values for the Ki in experiment [2] and in experiment [1] were 8200 nM and above 10000 nM, respectively.

As for `C[C@H]1[C@H](Nc2ccc(Cl)cn2)CCCN1C(=O)c1ccccc1-n1nccn1` (racemic) [Example 32, (±)-trans-(2-(2H-1,2,3-triazol-2-yl)phenyl)(3-((5-chloropyridin-2-yl)amino)-2-methylpiperidin-1-yl)methanone], in experiment [1], the Ki worked out at 286 nM.

For the compound `C[C@H]1[C@H](Nc2ccc(C(F)(F)F)cn2)CCCN1C(=O)c1cc(F)ccc1-n1nccn1` (racemic) [Example 24, (±)-trans-(5-fluoro-2-(2H-1,2,3-triazol-2-yl)phenyl)(2-methyl-3-((5-(trifluoromethyl)pyridin-2-yl)amino)piperidin-1-yl)methanone], the Ki in experiment [1] is 324 nM.

Consider `COc1c(F)cccc1C(=O)N1CCC[C@@H](Nc2nc3cc(Cl)ccc3o2)[C@@H]1C` (racemic) [Example 47, (±)-trans-(3-((5-chlorobenzo[d]oxazol-2-yl)amino)-2-methylpiperidin-1-yl)(3-fluoro-2-methoxyphenyl)methanone], for which the Ki in experiment [2] was found to be 373 nM; in experiment [1], 1300 nM.

Turning to `CCOc1ccccc1C(=O)N1CCC[C@@H](Nc2nccc(-c3ccccc3)n2)[C@@H]1C` (racemic) [Example 53, (±)-trans-(2-ethoxyphenyl)(2-methyl-3-((4-phenylpyrimidin-2-yl)amino)piperidin-1-yl)methanone], the Ki in experiment [1] was determined as 58 nM.

For `C[C@@H]1[C@H](Nc2nc3cc(Cl)ccc3o2)CCCN1C(=O)c1ccccc1-n1nccn1` (racemic) [Example 60, (±)-cis-((2-(2H-1,2,3-triazol-2-yl)phenyl)(3-((5-chlorobenzo[d]oxazol-2-yl)amino)-2-methylpiperidin-1-yl)methanone], the Ki in experiment [2] and in experiment [1] was above 10000 nM in each case.

Take `C[C@H]1[C@H](Nc2ncc(F)cn2)CCCN1C(=O)c1ccccc1-n1nccn1` (racemic) [Example 40, (±)-trans-(2-(2H-1,2,3-triazol-2-yl)phenyl)(3-((5-fluoropyrimidin-2-yl)amino)-2-methylpiperidin-1-yl)methanone]: the values for the Ki in experiment [2] and in experiment [1] were 870 nM and 822 nM, respectively.

As for `COc1c(F)cccc1C(=O)N1CCC[C@@H](Nc2ccc(C(F)(F)F)cn2)[C@H]1C` (racemic) [Example 54, (±)-cis-(3-fluoro-2-methoxyphenyl)(2-methyl-3-((5-(trifluoromethyl)pyridin-2-yl)amino)piperidin-1-yl)methanone], the results for the Ki in experiment [2] and in experiment [1] were 4500 nM and above 10000 nM, respectively.

For the compound `C[C@@H]1[C@H](Nc2nccc(-c3ccccc3)n2)CCCN1C(=O)c1ccccc1-n1nccn1` (racemic) [Example 66, (±)-cis-(2-(2H-1,2,3-triazol-2-yl)phenyl)(2-methyl-3-((4-phenylpyrimidin-2-yl)amino)piperidin-1-yl)methanone], in experiment [1], the Ki worked out at 1800 nM.

In the case of `C[C@H]1[C@H](Nc2ccc(C(F)(F)F)cn2)CCCN1C(=O)c1ncccc1-n1nccn1` (racemic) [Example 21, (±)-trans-(3-(2H-1,2,3-triazol-2-yl)pyridin-2-yl)(2-methyl-3-((5-(trifluoromethyl)pyridin-2-yl)amino)piperidin-1-yl)methanone], in experiment [1], the Ki was 595 nM.

`Cc1cnc(N[C@@H]2CCCN(C(=O)c3ccccc3-n3nccn3)[C@H]2C)nc1` (racemic) [Example 31, (±)-trans-(2-(2H-1,2,3-triazol-2-yl)phenyl)(2-methyl-3-((5-methylpyrimidin-2-yl)amino)piperidin-1-yl)methanone]: the Ki in experiment [1] came out at 508 nM.

Take `C[C@H]1[C@H](Nc2nccc(-c3ccccc3)n2)CCCN1C(=O)c1ccccc1-n1nccn1` (racemic) [Example 51, (±)-trans-(2-(2H-1,2,3-triazol-2-yl)phenyl)(2-methyl-3-((4-phenylpyrimidin-2-yl)amino)piperidin-1-yl)methanone]: the Ki in experiment [1] was 2100 nM.

For the compound `COc1c(F)cccc1C(=O)N1CCC[C@@H](Nc2nccc(-c3ccccc3)n2)[C@@H]1C` (racemic) [Example 52, (±)-trans-(3-fluoro-2-methoxyphenyl)(2-methyl-3-((4-phenylpyrimidin-2-yl)amino)piperidin-1-yl)methanone], the Ki in experiment [1] amounted to 2700 nM.

As to `COc1c(F)cccc1C(=O)N1CCC[C@@H](Nc2nccc(-c3ccccc3)n2)[C@H]1C` (racemic) [Example 67, (±)-cis-(3-fluoro-2-methoxyphenyl)(2-methyl-3-((4-phenylpyrimidin-2-yl)amino)piperidin-1-yl)methanone], the Ki in experiment [1] was above 10000 nM.

On to `CCOc1ccccc1C(=O)N1CCC[C@@H](Nc2nc3cc(Cl)ccc3o2)[C@H]1C` (racemic) [Example 61, (±)-cis-(3-((5-chlorobenzo[d]oxazol-2-yl)amino)-2-methylpiperidin-1-yl)(2-ethoxyphenyl)methanone], for which the Ki in experiment [1] was 2500 nM.

With `CCOc1ccc(C)nc1C(=O)N1CCC[C@@H](Nc2ccc(C(F)(F)F)cn2)[C@@H]1C` (racemic) [Example 16, (±)-trans-(3-ethoxy-6-methylpyridin-2-yl)(2-methyl-3-((5-(trifluoromethyl)pyridin-2-yl)amino)piperidin-1-yl)methanone], in experiment [1], the Ki is 680 nM.
